Measurements reported in patent US8293979B2, “Weed controller metabolism proteins, genes, thereof and use of the same” (Sumitomo Chemical Company, Limited, priority 2001, dated 2012).

Assays:
[1] = test system: leaf pieces derived from the tobacco to which the control DNA (T-DNA region of plasmid pBI121S) was introduced; experiment: Herbicidal damage of tobacco leaf pieces on MS agar medium containing compound (II); format: cell-based, Nicotiana tabacum strain SR1; settings: MS agar medium containing 0.1 mg/L of compound (II), in the light at room temperature, 7th day of culturing
Protocol: (§1) Then, according to the method described in Manual for Gene Manipulation of Plant (by Hirofumi UCHIMIYA, Kodan-sha Scientific, 1992), the gene was introduced into tobacco. Agrobacterium strains bearing the above plasmids were each cultured at 28° C. overnight in LB medium containing 300 mg/L streptomycin, 100 mg/L rifampicin and 25 mg/L kanamycin, and then leaf pieces of tobacco (Nicotiana tabacum strain SR1) cultured sterilely were dipped in the liquid culture medium. The leaf pieces were planted and cultured at room temperature for 2 days in the light in MS agar medium (MS inorganic salts, MS vitamins, 3% sucrose and 0.8% agar; described in Murashige T. and Skoog F., Physiol. Plant. (1962) 15, p 473) containing 0.1 mg/L of naphthalene acetic acid and 1.0 mg/L of benzyl aminopurine. Then, the leaf pieces were washed with sterilized water and cultured for 7 days on MS agar medium containing 0.1 mg/L of naphthalene acetic acid, 1.0 mg/L of benzyl aminopurine and 500 mg/L of cefotaxime. Next, the leaf pieces were transplanted and cultured in MS agar medium containing 0.1 mg/L of naphthalene acetic acid, 1.0 mg/L of benzyl aminopurine, 500 mg/L of cefotaxime and 100 mg/L of kanamycin. The culture was conducted continuously for 4 months while transplanting the leaf pieces to fresh medium of the same composition at intervals of 4 weeks. […]

[2] = test system: leaf pieces derived from the tobacco to which the present invention DNA (A1) was introduced; experiment: as above; format: cell-based, Nicotiana tabacum strain SR1; settings: MS agar medium containing 0.1 mg/L of compound (II), in the light at room temperature, 7th day of culturing
Protocol: as §1

[3] = test system: present invention protein (A24); experiment: Detection of the ability to convert compound (II) to compound (III), E. coli pKSN1589BF extract; format: in vitro ADME, Streptomyces rutgersensis IFO 15875T; settings: 3 ppm of compound (II) labeled with 14C, components A, B, 10 minutes at 30° C.
Protocol: (§2) Reaction solutions of 30 μl were prepared and maintained for 10 minutes at 30° C. The reaction solutions consisted of a 0.1M potassium phosphate buffer (pH7.0) containing 3 ppm of compound (II) labeled with ^14C, 2 mM of β-NADPH (hereinafter, referred to as “component A”) (Oriental Yeast Company), 2 mg/ml of a ferredoxin derived from spinach (hereinafter referred to as “component B”) (Sigma Company), 0.1 U/ml of ferredoxin reductase (hereinafter, referred to as “component C”) (Sigma Company) and 23 μl of the supernatant fraction recovered in Example 32(2). Similarly to Example 4(3), the reaction solutions after the maintenance were extracted with ethyl acetate and the extracted layers were TLC analyzed. […] A spot corresponding to compound (III) was detected from the reaction solution containing E. coli pKSN849AF extract. In contrast, such a spot was not detected from the reaction solution containing E. coli pKSN2 extract.
Similarly to Example 32(3), reaction solutions of 30 μl were prepared and maintained for 10 minutes at 30° C. […] The reaction solutions after the maintenance were extracted with ethyl acetate and the extracted layers were TLC analyzed. […] A spot corresponding to compound (III) was detected from the reaction solution containing E. coli pKSN1589BF extract. In contrast, such a spot was not detected from the reaction solution containing E. coli pKSN2 extract.

[4] = test system: present invention protein (A14); experiment: Detection of the ability to convert compound (II) to compound (III), E. coli pKSN1491AF extract; format: in vitro ADME, Streptomyces glomerochromogenes IFO 13673t; settings: 3 ppm of compound (II) labeled with 14C, components A, B, 10 minutes at 30° C.
Protocol: as §2
Reaction solutions of 30 μl were prepared and maintained for 10 minutes at 30° C. […] The reaction solutions after the maintenance were extracted with ethyl acetate and the extracted layers were TLC analyzed. […] A spot corresponding to compound (III) was detected from the reaction solution containing E. coli pKSN1491AF extract. In contrast, such a spot was not detected from the reaction solution containing E. coli pKSN2 extract.

[5] = test system: present invention protein (A23); experiment: Detection of the ability to convert compound (II) to compound (III), E. coli pKSN1584F extract; format: in vitro ADME, Streptomyces roseorubens IFO 13682T; settings: 3 ppm of compound (II) labeled with 14C, components A, B, 10 minutes at 30° C.
Protocol: as §2
Similarly to Example 32(3), reaction solutions of 30 μl were prepared and maintained for 10 minutes at 30° C. […] The reaction solutions after the maintenance were extracted with ethyl acetate and the extracted layers were TLC analyzed. […] A spot corresponding to compound (III) was detected from the reaction solution containing E. coli pKSN1584F extract. In contrast, such a spot was not detected from the reaction solution containing E. coli pKSN2 extract.

C[C@@H](Oc1cc(-n2c(=O)cc(C(F)(F)F)n(C)c2=O)c(F)cc1Cl)C(=O)O [compound (II)]
herbicidal damage of the leaf pieces [1]: turned white and withered | herbicidal damage of the leaf pieces [2]: grew continuously | spot corresponding to compound (III) labeled with 14C (TLC) [3]: detected | spot corresponding to compound (III) labeled with 14C (TLC) [4]: detected | spot corresponding to compound (III) labeled with 14C (TLC) [5]: detected
